The target in experiment [1] is β-catenin E155A/BCL9 PPI (Homo sapiens (Human), UniProt P35222, E155A). As to the kind of experiment: AlphaScreen competitive inhibition assay, β-catenin E155A mutant/BCL9 PPI. Format: binding. As to the method:
(§1) β-Catenin mutants D145A, E155A, D145A/E155A have been made previously.^5 Wild-type β-catenin and its mutants (residues 138-686) were cloned into a pET-28b vector carrying a C-terminal 6×histidine (Novagen), and transformed into Escherichia coli BL21 DE3 (Novagen). Cells were cultured in LB medium with 30 μg/mL kanamycin until the OD600 was approximately 0.8, and then protein expression was induced with 400 μM of IPTG at 20° C. overnight. Cells were lysed by sonication. […] The purity of β-catenin was greater than 95% as determined by SDS-PAGE gel analysis. Native non-denaturing gel electrophoresis was performed to confirm the homogeneity of the purified proteins. Thermal-shift assay was performed on an iCycler iQ Real Time Detection System (Bio-Rad) to monitor protein stability and detect protein aggregation. Protein unfolding was evaluated through measuring the fluorescence changes of fluorescent dye Sypro Orange when interacting with wild-type or mutant β-catenin proteins. A temperature increment of 1°/min was applied. CD spectra were measured on a J-815 spectropolarimeter (Jasco). All spectra were recorded at room temperature, and the baseline control containing all of the substances except protein. […]
(In Alpha technology, singlet oxygen from a donor bead excites a nearby acceptor bead.)

The subject of experiment [2] is pcDNA3.1-β-catenin transfected HEK293 cells, FOPFlash (mutant Tcf binding sites). As to the kind of experiment: FOPFlash luciferase reporter assay. The experiment is classed as cell-based. The note with it: up to 100 μM. Here is the method:
(§2) 27. Cell Transfection and Luciferase Assay
(§3) FuGENE 6 (E2962, Promega) in a 96-well plate format was used for the transfection of HEK293 and SW480 cells according to the manufacturer's instructions. HEK293 cells were co-transfected with 45 ng of the TOPFlash (with three wild-type Tcf binding sites) or FOPFlash (with three mutant Tcf binding sites) reporter gene, 135 ng pcDNA3.1-β-catenin and 20 ng pCMV-RL normalization reporter gene. SW480 cells were co-transfected with 60 ng of the TOPFlash or FOPFlash reporter gene and 40 ng pCMV-RL normalization reporter. Cells were cultured at 37° C. for 24 h, and different concentrations of inhibitors were then added. After 24 h, the luciferase reporter activity was measured using the Dual-Glo system (E2940, Promega). Normalized luciferase activity in response to the treatment with the inhibitors was compared with that obtained from the cells treated with DMSO. Experiments were performed in triplicate.
Background: Reporter assays use an easily measured gene product as a stand-in for the process of interest.

The test system of experiment [3] is pcDNA3.1-β-catenin transfected HEK293 cells, TOPFlash (wild-type Tcf binding sites). As to the kind of experiment: TOPFlash Wnt-responsive luciferase reporter assay. The note with it: 24 h treatment, hydrochloride. Format: cell-based. As to the method: as §2, §3
Experiment [4] deals with β-catenin/BCL9 PPI (Homo sapiens (Human), UniProt P35222). The experiment can be described thus: AlphaScreen competitive inhibition assay, wild-type β-catenin/BCL9 PPI. The experiment is classed as binding. The note with it: wild-type β-catenin/BCL9 PPI, AlphaScreen competitive inhibition, mean ± SD (n=3). As to the method:
Cells were cultured in LB medium with 30 μg/mL kanamycin until the OD600 was approximately 0.8, and then protein expression was induced with 400 μM of IPTG at 20° C. overnight. Cells were lysed by sonication. […] Native non-denaturing gel electrophoresis was performed to confirm the homogeneity of the purified proteins. Thermal-shift assay was performed on an iCycler iQ Real Time Detection System (Bio-Rad) to monitor protein stability and detect protein aggregation. Protein unfolding was evaluated through measuring the fluorescence changes of fluorescent dye Sypro Orange when interacting with wild-type or mutant β-catenin proteins. A temperature increment of 1°/min was applied. […] All spectra were recorded at room temperature, and the baseline control containing all of the substances except protein. Sample were prepared at a concentration around 1-5 μM in a buffer of 10 mM potassium phosphate and 100 mM potassium fluoride at pH 7.0 to ensure that the transmission of light through the sample was not restricted. […] Proteins were aliquoted and stored at −80° C.
25. Alphascreen Competitive Inhibition Assays Using Wild-Type and Mutant β-Catenin Proteins

The target in experiment [5] is β-catenin D145A/BCL9 PPI (Homo sapiens (Human), UniProt P35222, D145A). The experiment can be described thus: AlphaScreen competitive inhibition assay, β-catenin D145A mutant/BCL9 PPI. Format: binding. Here is the method: as §1
The test system of experiment [6] is SW480 cells. The experiment can be described thus: MTS cell viability assay, SW480. The experiment is classed as cell-based. The note with it: read-out: IC50 ± SD. Here is the method:
(§4) 26. MTS Cell Viability Assay
(§5) Colorectal cancer cell lines, SW480 and HCT116 were seeded in 96-well plates at 4×10^3 cells/well, maintained overnight at 37° C., and incubated with the tested compounds at various concentrations. Cell viability was monitored after 72 h using a freshly prepared mixture of 1 part phenazine methosulfate (PMS, Sigma) solution (0.92 mg/mL) and 19 parts 3-(4,5-dimethylthiazol-2-yl)-5-(3-carboxymethoxyphenyl)-2-(4-sulfophenyl)-2H-tetrazolium (MTs, Promega) solution (2 mg/mL). Cells were incubated in 10 μL of this solution at 37° C. for 3 h, and A490 was measured. […] Experiments were performed in triplicate.
(In general: Tetrazolium assays rely on reduction of a dye to a coloured formazan, in cell work by metabolically active cells.)

Experiment [7] addresses β-catenin D145A/E155A double mutant/BCL9 interaction (Homo sapiens (Human), UniProt P35222, D145A/E155A). The experiment can be described thus: AlphaScreen competitive inhibition assay, β-catenin D145A/E155A double mutant/BCL9 interaction. The experiment is classed as binding. The note with it: read-out: Ki ± SD. Here is the method: as §1
Experiment [8] has as its system HCT116 cells. As to the kind of experiment: MTS cell viability assay, HCT116. Format: cell-based. The note with it: read-out: IC50 ± SD. Here is the method:
as §4, §5

Experiment [9] has as its target β-catenin/cadherin PPI (Homo sapiens (Human), UniProt P35222). As to the kind of experiment: AlphaScreen selectivity assay, β-catenin/BCL9 over β-catenin/cadherin PPIs. The note with it: in-parallel AlphaScreen selectivity assay. Format: binding. From the text: Human BCL9 (residues 350-375), N-terminally biotinylated human BCL9 (residues 350-375), N-terminally fluorescein-labeled human BCL9 (residues 350-375), and N-terminally biotinylated human E-cadherin (residues 824-877) were synthesized by InnoPep Inc. (www.innopep.com) and HPLC purified by HPLC with purity>95%. The structures were validated by LC/MS. The sequences of these peptides have been described previously.^6
The experimental details of the AlphaScreen competitive inhibition assays for the β-catenin/BCL9 and β-catenin/E-cadherin PPIs have been described previously.^5 The concentrations of mutant β-catenin proteins used in the AlphaScreen competitive inhibition assays were the same as that of wild-type β-catenin protein.
The AlphaScreen selectivity assay was used to quantify inhibitor selectivity.

“Also recorded” adds a separate entry of the source. Structures can show the parent of a compound that is named as a salt. Where two headings read alike, the source gives them in different places.

Sequence of β-catenin/BCL9 PPI (P35222 138-686): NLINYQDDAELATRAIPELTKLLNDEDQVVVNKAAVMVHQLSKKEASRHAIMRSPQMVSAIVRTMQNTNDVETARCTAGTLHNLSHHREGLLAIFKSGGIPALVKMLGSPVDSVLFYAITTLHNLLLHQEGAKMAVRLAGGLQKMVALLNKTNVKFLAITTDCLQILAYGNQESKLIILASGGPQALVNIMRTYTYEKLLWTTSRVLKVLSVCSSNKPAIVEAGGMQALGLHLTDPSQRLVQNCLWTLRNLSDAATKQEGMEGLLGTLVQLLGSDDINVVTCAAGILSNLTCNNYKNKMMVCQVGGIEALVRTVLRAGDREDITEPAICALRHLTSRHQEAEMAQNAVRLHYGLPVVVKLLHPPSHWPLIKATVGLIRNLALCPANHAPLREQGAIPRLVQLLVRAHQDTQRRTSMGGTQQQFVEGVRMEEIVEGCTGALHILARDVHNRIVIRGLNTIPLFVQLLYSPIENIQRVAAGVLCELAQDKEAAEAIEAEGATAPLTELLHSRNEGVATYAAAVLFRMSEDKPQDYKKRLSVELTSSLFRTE
Sequence of β-catenin D145A/BCL9 PPI (P35222 138-686 D145A): as the sequence (P35222 138-686) above, with D8A counted along it
Sequence of β-catenin E155A/BCL9 PPI (P35222 138-686 E155A): as the sequence (P35222 138-686) above, with E18A counted along it
Sequence of β-catenin/cadherin PPI (P35222 138-686): as the sequence (P35222 138-686) above
Sequence of β-catenin D145A/E155A double mutant/BCL9 interaction (P35222 138-686 D145A/E155A): as the sequence (P35222 138-686) above, with D8A, E18A counted along it

Turning to `Cl.Cl.O=C(c1cc(F)cc(N2CCNCC2)c1)N1CCN(C(=O)c2ccc(O[C@H]3CCNC3)c(C3CCCCC3)c2)CC1` [Compound 10, (S)-(4-(3-Cyclohexyl-4-(pyrrolidin-3-yloxy)benzoyl)piperazin-1-yl) (3-fluoro-5-(piperazin-1-yl)phenyl) methanone hydrochloride], the “Ki fold higher than for wild-type β-catenin/BCL9 PPI” value in experiment [1] (β-catenin E155A/BCL9 PPI vs wild type) and in experiment [5] (β-catenin D145A/BCL9 PPI vs wild type) was 6-8 fold each time. Further, the Ki – broadly, a measure of affinity in units of concentration, obtained from inhibition or displacement – in experiment [1] (β-catenin E155A/BCL9 PPI, AlphaScreen competitive inhibition, read-out: Ki ± SD) worked out at 39 ± 3.3 µM; in experiment [4] it was 5.2 µM; in [5] (β-catenin D145A/BCL9 PPI, AlphaScreen competitive inhibition, read-out: Ki ± SD) it was 29 ± 3 µM; in [7], 53 ± 4.2 µM. Moreover, the FOPFlash luciferase activity result in [2] is reported as “did not affect”. Moreover, the TOPFlash luciferase activity entry in experiment [3] was “suppressed the TOPFlash (with wild-type Tcf binding sites) luciferase activity in a dose-dependent manner; also recorded: suppress the transactivation of canonical Wnt signaling”. For the same compound, the IC50 (as a rule, the concentration at which inhibition is half-maximal) in [6] (Homo sapiens, SW480, 72 h) came to 22 ± 4 µM; in [8] (Homo sapiens, HCT-116, 72 h) it was 26 ± 6.6 µM. Besides, the “selectivity for β-catenin/BCL9 over β-catenin/cadherin PPIs” value in [9] came to 98 fold.
In [4], `O=C(c1cc(F)cc(O[C@H]2CCNC2)c1)N1CCN(C(=O)c2ccc(O[C@H]3CCNC3)c(-c3ccc(F)cc3)c2)CC1` [Compound 6, (4-(3-Fluoro-5-(((S)-pyrrolidin-3-yl)oxy)benzoyl)piperazin-1-yl) (4′-fluoro-6-(((S)-pyrrolidin-3-yl)oxy)-[1,1′-biphenyl]-3-yl) methanone hydrochloride] gave a Ki of 48 ± 11 µM.
On the same count and under the same terms, as for `NCCc1cc(F)cc(C(=O)N2CCN(C(=O)c3ccc(O[C@H]4CCNC4)c(-c4ccc(F)cc4)c3)CC2)c1` [Compound 5, (S)-(4-(3-(2-Aminoethyl)-5-fluorobenzoyl)piperazin-1-yl)(4′-fluoro-6-(pyrrolidin-3-yloxy)-[1,1′-biphenyl]-3-yl)methanone hydrochloride], the figure is 67 ± 13 µM.
In [4], `NCCOc1ccc(C(N)=O)cc1-c1ccc(F)cc1` [Compound 1, 2-((5-carbamoyl-4′-fluoro-[1,1′-biphenyl]-2-yl)oxy)ethan-1-aminium chloride] had a Ki of 130 ± 6.9 µM.
In turn, `O=C(c1cc(F)cc(N2CCNCC2)c1)N1CCN(C(=O)c2ccc(O[C@H]3CCNC3)c(C3CCC(F)(F)CC3)c2)CC1` [Compound 16, (S)-(4-(3-(4,4-Difluorocyclohexyl)-4-(pyrrolidin-3-yloxy)benzoyl)piperazin-1-yl)(3-fluoro-5-(piperazin-1-yl)phenyl)methanone hydrochloride] gave a Ki in experiment [4] of 53 ± 22 µM.
Same read-out and setting: as for `CC1(C)CCC(c2cc(C(=O)N3CCN(C(=O)c4cc(F)cc(N5CCNCC5)c4)CC3)ccc2O[C@H]2CCNC2)CC1` [Compound 15, (S)-(4-(3-(4,4-Dimethylcyclohexyl)-4-(pyrrolidin-3-yloxy)benzoyl)piperazin-1-yl) (3-fluoro-5-(piperazin-1-yl)phenyl) methanone hydrochloride], the figure is 45 ± 6.7 µM.
Take `CC1CCC(c2cc(C(=O)N3CCN(C(=O)c4cc(F)cc(N5CCNCC5)c4)CC3)ccc2O[C@H]2CCNC2)CC1.Cl` (stereo partly drawn) [Compound 12, (S)-(4-(3-fluoro-5-(piperazin-1-yl)benzoyl)piperazin-1-yl) (3-(4-methylcyclohexyl)-4-(pyrrolidin-3-yloxy)phenyl) methanone hydrochloride]: the TOPFlash luciferase activity result in experiment [3] is listed as “suppressed the TOPFlash (with wild-type Tcf binding sites) luciferase activity in a dose-dependent manner; also recorded: suppress the transactivation of canonical Wnt signaling”. Further, the 50% inhibitory concentration (IC50) in experiment [6] (SW480 colorectal cancer cells, MTS, 72 h) was 44 ± 6.5 µM; in experiment [8] (HCT116 colorectal cancer cells, MTS, 72 h), 39 ± 5.4 µM.
In experiment [4], `O=C(c1cc(F)cc(N2CCNCC2)c1)N1CCN(C(=O)c2ccc(O[C@H]3CCNC3)c(-c3ccc(F)cc3)c2)CC1` [Compound 2, (S)-(4-(3-fluoro-5-(piperazin-1-yl)benzoyl)piperazin-1-yl) (4′-fluoro-6-(pyrrolidin-3-yloxy)-[1,1′-biphenyl]-3-yl) methanone hydrochloride] had a Ki of 19 µM. The concentration for half-maximal inhibition (IC50) is 86 ± 8.8 µM in experiment [6] (Homo sapiens, SW480 colorectal cancer cells, MTS, 72 h) and 120 ± 16 µM in [8] (Homo sapiens, HCT-116, HCT116 colorectal cancer cells, MTS, 72 h).

(Values after patent US11542254B2, “Methods and composition of 4-substituted benzoylpiperazine-1-substituted carbonyls as beta-catenin/B-cell lymphoma 9 inhibitors” (University of Utah Research Foundation, priority 2016, dated 2023).)
